Consider 23 compounds from ChEMBL document CHEMBL1127014, “Synthesis and evaluation of imidazo[1,5-a][1,4]benzodiazepine esters with high affinities and selectivities at "diazepam-insensitive" benzodiazepine receptors” (J Med Chem, 1993).

For assay [1], the target named is GABA-A receptor; anion channel. In words: (§1) Binding affinity for Diazepam-Sensitive fraction of GABA-A benzodiazepine receptors. Type of assay: protein-complex assay, Rattus norvegicus.
The target of assay [2] is GABA-A receptor; anion channel. Put plainly: Binding affinity for Diazepam-Insensitive fraction of GABA-A benzodiazepine receptors. Format: protein-complex assay, Rattus norvegicus.
In assay [3] the target is T1, GABA-A receptor; anion channel (Rattus norvegicus) (UniProt O09028+P15431+P18506+P18508+P19969+P20236+P23574+P23576+P28471+P28473+P30191+P62813+P63079+P63138+Q91ZM7+Q9ES14). In words: GABA shift ratio at Diazepam sensitive fraction of GABA-A benzodiazepine receptor. Format: protein-complex assay.
Assay [4] deals with T1, GABA-A receptor; anion channel (Rattus norvegicus). Put plainly: Selectivity for Diazepam insensitive compared to sensitive GABA-A benzodiazepine receptor fractions. Format: protein-complex assay.
Assay [5] has as its target GABA-A receptor; anion channel. Put plainly: Inhibition of Diazepam-Insensitive faction of GABA-A benzodiazepine receptors. Format: protein-complex assay, Rattus norvegicus.
Assay [6] addresses GABA-A receptor; anion channel. Described as §1. Format: protein-complex assay.
In assay [7] the target is GABA-A receptor; anion channel. In words: Inhibition of Diazepam-Insensitive fraction of GABA-A benzodiazepine receptors. Type of assay: protein-complex assay, Rattus norvegicus.

Where only a bound is given, the exact number is not on record here.

As for `CN1Cc2c(C(=O)OCC(C)(C)C)ncn2-c2ccc(Cl)cc2C1=O`, the Ki came out at 499 nM in assay [1] and 300 nM in assay [2]. In addition, the GABA shift in assay [3] was determined as 177. The Ratio in assay [4] amounted to 0.67.

In turn, `COC(=O)c1ncn2c1CN(C)C(=O)c1ccccc1-2` showed a Ki in assay [1] of 6.3 nM. Moreover, the IC50 in assay [5] is over 1000 nM. Besides, the GABA shift in assay [3] came to 99.

For `CN1Cc2c(C(=O)OC(C)(C)C)ncn2-c2ccc(Cl)cc2C1=O`, the results for the Ki in assay [6] and in assay [2] were 4 nM and 1.7 nM, respectively. Moreover, the GABA shift in assay [3] stood at 116. The Ratio in assay [4] was 0.4.

`CCCOC(=O)c1ncn2c1CN(C)C(=O)c1sccc1-2`: the Ki amounted to 1.4 nM in assay [6] and 38 nM in assay [2]. Also, the Ratio in assay [4] is 27.

Compound `COC(=O)c1ncn2c1CN(C)C(=O)c1cc(Cl)ccc1-2` had a Ki in assay [2] of 124 nM.

As to `CN1Cc2c(C(=O)OC(C)(C)C)ncn2-c2ccc([N+](=O)[O-])cc2C1=O`, the Ki was 14 nM in assay [1] and 10.8 nM in assay [2]. The GABA shift in assay [3] was 1.46. Moreover, the Ratio in assay [4] is 0.77.

`CN1Cc2c(C(=O)OCCC(C)(C)C)ncn2-c2ccc(Cl)cc2C1=O` had a Ki in assay [6] of 184 nM. In assay [7], this compound returned an IC50 of over 1000 nM. Further, the GABA shift in assay [3] came to 201.

`CCOC(=O)c1ncn2c1CN(C)C(=O)c1cc(Cl)ccc1-2` [Ro-151310] registered a Ki in assay [1] of 5.4 nM.

As to `CN1Cc2c(C(=O)OC(C)(C)C)ncn2-c2ccccc2C1=O`, the inhibition constant (Ki) in assay [6] was 1.1 nM; in assay [2], 21.2 nM. In assay [3], the GABA shift came to 105. Moreover, the Ratio in assay [4] worked out at 19.2.

With `CN(C)N=Nc1ccc2c(c1)C(=O)N(C)Cc1c(C(=O)OC(C)(C)C)ncn1-2`, affinity in assay [1] was put at a Ki of 3490 nM. In assay [7], this compound registered an IC50 of over 1000 nM. The GABA shift in assay [3] amounted to 1.12.

`COC(=O)c1ncn2c1CN(C)C(=O)c1sccc1-2`: the results for the inhibition constant (Ki) in assay [6] and in assay [2] were 0.9 nM and 52 nM, respectively. For the same compound, in assay [4], the Ratio was found to be 57.

Regarding `CCOC(=O)c1ncn2c1[C@@H]1CCCN1C(=O)c1ccccc1-2`, the Ki in assay [6] worked out at 0.9 nM; in assay [2] it was 45 nM. The Ratio in assay [4] is 50.

For the compound `CN1Cc2c(C(=O)OC(C)(C)C)ncn2-c2ccc(N=[N+]=[N-])cc2C1=O`, the inhibition constant (Ki) was found to be 2.1 nM in assay [6] and 0.43 nM in assay [2]. For the same compound, the GABA shift in assay [3] stood at 1.76. In assay [4], the Ratio amounted to 0.2.

For `CN1Cc2c(C(=O)OC(C)(C)C)ncn2-c2ccc(N=C=S)cc2C1=O`, the figures for the Ki in assay [6] and in assay [2] were 3.7 nM and 2.7 nM, respectively. In addition, in assay [3], the GABA shift was 1.35. Further, the Ratio in assay [4] stood at 0.73.

For the compound `CN1Cc2c(C(=O)OC(C)(C)C)ncn2-c2ccc(I)cc2C1=O`, the Ki in assay [6] turned out to be 7 nM; in assay [2], 1.5 nM. For the same compound, in assay [3], the GABA shift stood at 1.22. The Ratio in assay [4] was determined as 0.21.

Consider `CC(C)OC(=O)c1ncn2c1CN(C)C(=O)c1cc(Cl)ccc1-2`, for which the Ki in assay [6] came to 10.5 nM; in assay [2] it was 8.8 nM. Moreover, the GABA shift in assay [3] worked out at 123. Besides, the Ratio in assay [4] worked out at 0.8.

As for `CCCOC(=O)c1ncn2c1CN(C)C(=O)c1cc(Cl)ccc1-2`, the inhibitory constant (Ki) in assay [6] is 24.8 nM; in assay [2], 33.3 nM. For the same compound, in assay [3], the GABA shift was found to be 128. In addition, the Ratio in assay [4] worked out at 1.3.

As to `CCOC(=O)c1ncn2c1CN(C)C(=O)c1ccccc1-2` [RO-147437], the inhibitory constant (Ki) came out at 1.3 nM in assay [1] and 214 nM in assay [2]. The GABA shift in assay [3] came to 98. Besides, the Ratio in assay [4] was determined as 165.

Turning to `CN1Cc2c(C(=O)OC(C)(C)C)ncn2-c2ccsc2C1=O` [RO-194603], the inhibitory constant (Ki) is 0.2 nM in assay [1] and 2.6 nM in assay [2]. Besides, in assay [4], the Ratio was found to be 13.

As for `CCC(CC)OC(=O)c1ncn2c1CN(C)C(=O)c1cc(Cl)ccc1-2`, the Ki in assay [6] came out at 26.9 nM; in assay [2], 123 nM. Also, the GABA shift in assay [3] amounted to 158. Moreover, the Ratio in assay [4] came out at 4.6.

With `CCOC(=O)c1ncn2c1C1CCCN1C(=O)c1cc(Cl)ccc1-2` (stereo not drawn) [RO-145975], the inhibitory constant (Ki) in assay [6] worked out at 72 nM; in assay [2], 53 nM. Moreover, the Ratio in assay [4] worked out at 0.73.

As to `CN1Cc2c(C(=O)OC(C)(C)C)ncn2-c2ccc(Br)cc2C1=O`, the Ki in assay [1] was 16 nM; in assay [2], 2.8 nM. In addition, the GABA shift in assay [3] was determined as 1.06. In addition, the Ratio in assay [4] was determined as 0.17.

On to `CN1Cc2c(C(=O)OCC3CC3)ncn2-c2ccc(Cl)cc2C1=O`, for which the Ki came to 9.7 nM in assay [1] and 39.8 nM in assay [2]. For the same compound, the GABA shift in assay [3] was found to be 176. Further, in assay [4], the Ratio was found to be 4.1.
